These results are taken from publication PMC3869945, “Synthetic 1,4-Pyran Naphthoquinones Are Potent Inhibitors of Dengue Virus Replication” (PLoS ONE, 2013).

In general, IC50 refers to the midpoint of a concentration-inhibition curve. Read a high IC50 as a need for much substance. In general, inhibition refers to the drop in the measured response relative to a control, in per cent. Higher therefore signals a strong effect.

Structures are written as SMILES. A value given as a limit tells only on which side of the number the result lay.

The subject of data set [1] is DENV-2. Put plainly: Virus replication inhibition assay in Vero cells, cell-free viral RNA by qPCR. Type of data set: cell-based. The following applies: for % of Inhibition of DENV-2 Replication (qPCR): DENV-2 infected Vero cells, m.o.i 0.1, 72 h, highest non-toxic concentration (μM, in parentheses after label): 8d 25, 9b and 9c 100, 10a and 10b 12.5, Ribavirin 200; for IC50: qPCR, 100 to 0.4 μM dose response, Hill regression; for Inhibition of DENV-2 replication (in words): highest non-toxic concentration. The method, then: In order to test the anti-viral effect of the compounds used in this work, monolayers of Vero cells were inoculated with DENV-2 at an m.o.i of 0.1 for 2 hours. After this period, cells were washed with 1X PBS to remove unbound viruses and fresh media was added with the highest non-cytotoxic concentration of the compounds. Infected cells were also cultured with culture medium or 1% DMSO, as negative controls, or with 200μM of Ribavirin® as reference drug for DENV replication inhibition. After 72 h, culture supernatants were collected and viral RNA was extracted using the QIAamp Viral RNA Mini Kit (Qiagen – Hamburg, Germany), according to manufacturer’s instructions. The synthesis of cDNA was performed with random hexamers as primers and the High Capacity cDNA kit (LifeTechnologies – Carlsbad, USA) according to manufacturer’s instructions. The detection and quantification of the cell free viral genomic RNA was performed by qPCR using specific primers and probe hybridizing in the protein E gene region as already described. qPCR conditions were as follow: a reaction mixture consisting of 12.5μL of TaqMan (Invitrogen – Carlsbad, USA), 50 pmol of each primer, 9 pmol of the probe and 7μL of the cDNA reaction to a final volume of 25μL was submitted to 40 cycles of amplification in a ABI PRISM 7000 Detection System (LifeTechnologies – Carlsbad, USA) using 60°C annealing temperature. Amplification results were analyzed using the 7000 SDS software (LifeTechnologies – Carlsbad, USA) and the threshold parameter was manually adjusted.
The efficiency of the qPCR was calculated based on the slope of a Ct versus Template Concentration curve. To generate the calibration curve, a purified stock of DENV-2 containing 10^5 Plaque forming unities/ml was serially diluted and used to RNA extraction followed by cDNA synthesis, which was in turn used as template for the qPCR. A value of -3.30 was achieved, which represents an efficiency close to 100%. Based on this efficiency for the qPCR, the percentage of inhibition of DENV replication was calculated by the ΔΔCT method.
A dose response curve was also performed with the compounds that inhibited DENV replication by at least 30%. For this purpose, DENV-2-infected Vero cells were cultured with the selected compounds at concentrations varying from 100 to 0.4 μM and virus replication was measured by qPCR as above. IC50 values were obtained by the Hill’s regression curve using the software Prism 5. Experiments were always performed in triplicates. All results were confirmed in HepG2 cells by qPCR and by TCID50 in Vero cells.
(Real-time PCR tracks product formation cycle by cycle.)

The target in data set [2] is T1, DENV-2 NS3 (full-length, NS3FL) ATPase activity (Dengue virus type 2, UniProt P14340).
T1 construct: The fragment corresponding to amino acids 1 to 619 of NS3FL was amplified; 10xHis (N, cleaved yes); ubiquitin (N, cleaved yes); made in house; host or cells: E. coli Rosetta (λDE3)
T1 sequence (P14340 1476-2093): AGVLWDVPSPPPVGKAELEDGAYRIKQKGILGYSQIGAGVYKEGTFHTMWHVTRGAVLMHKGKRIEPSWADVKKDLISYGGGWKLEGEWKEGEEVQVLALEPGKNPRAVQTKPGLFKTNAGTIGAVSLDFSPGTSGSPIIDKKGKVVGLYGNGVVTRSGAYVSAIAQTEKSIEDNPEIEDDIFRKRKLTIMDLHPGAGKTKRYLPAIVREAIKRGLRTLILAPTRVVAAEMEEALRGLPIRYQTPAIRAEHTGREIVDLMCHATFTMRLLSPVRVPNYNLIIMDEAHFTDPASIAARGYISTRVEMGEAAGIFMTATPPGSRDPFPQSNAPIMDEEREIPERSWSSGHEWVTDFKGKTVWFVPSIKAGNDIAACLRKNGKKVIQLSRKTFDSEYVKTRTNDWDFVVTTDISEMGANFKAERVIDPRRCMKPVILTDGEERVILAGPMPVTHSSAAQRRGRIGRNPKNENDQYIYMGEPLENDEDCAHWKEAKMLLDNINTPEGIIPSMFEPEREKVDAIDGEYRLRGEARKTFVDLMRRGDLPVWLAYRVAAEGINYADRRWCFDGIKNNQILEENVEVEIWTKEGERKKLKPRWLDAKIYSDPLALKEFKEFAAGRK
Put plainly: Colorimetric NTPase (ATPase) assay with purified full-length NS3. Type of data set: biochemical. The following applies: for NS3 ATPase inhibition, statistical difference from control (unpaired t-test, p < 0.05): screening in duplicate; for IC50: compound ≤ 100 μM. The method, then: The ATPase activity of NS3 was determined by measuring the extension of hydrolysis of NTP to NDP and Pi. The amount of free inorganic phosphate released was calculated by the hydrolysis of ATP using a standard curve with known Pi concentrations, and the reaction was measured at 660 nm using SpectraMax M5 spectrophotometer (Molecular Devices). Compounds were diluted from 20 mM or 40 mM stock solution prepared in 100% DMSO. These compounds were diluted to a final concentration of 10% DMSO in the assay buffer. The compound screening assay was performed in 96-well plate, and in each well reaction containing 600 nM NS3FL, 40 mM Tris-HCl (pH 7.5), 5 mM MgCl2, 5 mM DTT, 0.1M KCl were pre-incubated with 50µM of compounds (or varying concentrations of the compound) for 10 min at 30 °C. The kinetic activity was initiated by the addition of 1 mM of ATP substrate and incubation for 10 min at 30°C. Reactions were stopped with addition of 20 μL 50% TCA, followed by 80 μL of ammonium molibidate solution and 40 μL of reducing agent. Absorbance was read and data were processed on Sigma Plot Version 10.0. The initial reaction velocities (Vi) of product formation were determined from progress curves using the linear regression method and data converted to residual activity and/or calculate IC50% assuming Michelis-Mentem kinetics. The experiments were carried out in duplicate and the statistical difference between the inhibition reaction in the presence of each compound and the control were evaluated by unpaired t-test analysis.
Once the ATPase activity was confirmed after purification process, we used the colorimetric assay developed by Fiske and Subbarow for the screening of compounds, which was performed using 600 nM of NS3FL in reactions containing 40 mM Tris-HCl (pH 7.5), 5 mM DTT, 100 mM KCl, 5 mM MgCl2, and 1 mM ATP and 50 µM of the pyran naphthoquinones 8, 9 and 10. […] The percentage of NS3FL ATPase activity inhibition varied from 15 to 50% of the untreated control.

The test system of a further data set is Vero cells. Put plainly: Cytotoxicity assay, neutral red staining (confirmed with CellTiter Blue). Type of data set: cell-based, African Green Monkey. The following applies: for Viability of uninfected host cell cultures: up to 100 µM, 72 h, neutral red. The procedure:
Cell toxicity of all compounds used in this work was tested in Vero and HepG2 cells by Neutral Red dye exclusion assay. Briefly, cells were cultured with varying concentrations of each compound and incubated for 72 hours at 37°C. After this period, the cells were incubated with 0.05% neutral red solution for 3 hours, washed with 1X PBS and fixed with 20% paraformaldehyde for 5 min. Cells were washed again and the incorporated dye was extracted with a 50% methanol and 1% acetic acid solution for 20 min. Plates were read at 490nm in a ELISA reader. Results obtained with the neutral red dye exclusion assay were confirmed using the CellTiter Blue Cell Viability Kit (Promega, Madison - USA) according to manufacturer’s instructions.
The compounds were initially screened regarding their toxicity level after culturing Vero and HepG2 cells with the effective concentration of each compound. After 72h, cellular viability was analyzed by neutral red staining and confirmed by the conversion of redox resazurin into fluorescent resorufin.
Background: Alamar Blue is a resazurin reagent that responds to reducing activity.

In data set [3] the test system is DENV-2. Put plainly: Tissue Culture Infectious Dose (TCID50) confirmation of replication inhibition in Vero cells. Type of data set: cell-based. The following applies: DENV-2 infected Vero cells. The method, then: Viruses used in this work include a DENV-2 prototype 16681 and a Brazilian isolate (44/02 - from Fundação Oswaldo Cruz – RJ - Brazil). Virus stocks were generated by infecting Vero cells at an 80% confluence with a multiplicity of infection (m.o.i) of 0.1. Infected cells were incubated at 37 °C for 5-7 days and inspected every day until the cytopathic effect was clearly observed. Supernatants were then collected, centrifuged at 1,200 x g for 10 min. to clear cellular debris and stored at -70°C until use. The titter of viral stocks was measured by TCID(50)% using serial dilutions of 10^1 to 10^7 of the viral stocks inoculated into Vero cells. The viral titter was calculated according with Reed and Munch.
A dose response curve was also performed with the compounds that inhibited DENV replication by at least 30%. For this purpose, DENV-2-infected Vero cells were cultured with the selected compounds at concentrations varying from 100 to 0.4 μM and virus replication was measured by qPCR as above. […]
To analyze the impact of the selected compounds on DENV replication, cells were infected and cultured with the highest non-toxic concentration of each compound and virus replication was analyzed by qRT-PCR. […] The differences in the percentage of inhibition when viral replication was measured by qRT-PCR and TCID50 were probably due to the differences in the sensibility of these assays. […]

The target in data set [4] is T2, DENV-2 NS3 protease domain linked to the NS2B cofactor (Dengue virus type 2, UniProt P14340).
T2 construct: the NS3 protease domain linked to the NS2B cofactor was purified; made in house
T2 sequence (P14340 1476-1653): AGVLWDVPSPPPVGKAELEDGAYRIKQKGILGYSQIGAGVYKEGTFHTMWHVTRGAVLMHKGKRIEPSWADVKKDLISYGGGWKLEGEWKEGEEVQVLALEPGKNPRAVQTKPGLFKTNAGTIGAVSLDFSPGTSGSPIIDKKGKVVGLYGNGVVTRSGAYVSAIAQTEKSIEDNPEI
T2 sequence (P14340 1398-1437): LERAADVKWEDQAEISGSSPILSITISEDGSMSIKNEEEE
Put plainly: NS3 protease inhibition assay with NS2B cofactor. Type of data set: biochemical. The note with it: in the presence of the NS2b cofactor, data not shown. The method, then:
We also evaluated whether the compounds were able to suppress the proteolytic activity of DENV-2 NS3. Several studies have shown that the NS2B cofactor is required by the protease domain to form a proteolytic active domain [47, 48]. Therefore, the NS3 protease domain linked to the NS2B cofactor was purified and the inhibition assay was performed as described by Leung and co-workers.

As for `O=C1C2=C(C(=O)c3ccccc31)C(c1ccccc1)C1=C(O2)C(=O)c2ccccc2C1=O` [10a], the “% of Inhibition of DENV-2 Replication (qPCR)” value (shortened to “% of Inhibition … (qPCR)”) with DENV-2 [1] is listed as 0%. Further, the “NS3 ATPase inhibition, statistical difference from control (unpaired t-test, p < 0.05)” value in data set [2] (50 µM compound) was “statistically different”.
For `Cc1ccc(C2CC(c3cccs3)C3=C(O2)c2ccccc2C(=O)C3=O)cc1` (stereo not drawn) [8c], the “Reduction of the NS3 ATPase activity” value in data set [2] (50 µM compound, 600 nM NS3FL, 1 mM ATP) was “two-fold reduction”. For the same compound, the “NS3 ATPase inhibition, statistical difference from control (unpaired t-test, p < 0.05)” value in data set [2] (50 µM compound) is given as “statistically different”. For the same compound, the “Toxicity to the cell culture” value in the data set with Vero cells (concentration as low as 0.4 μM) was “highly toxic”.
For the compound `Cc1ccc(C2CC(c3ccc([N+](=O)[O-])cc3)C3=C(O2)C(=O)c2ccccc2C3=O)cc1` (stereo not drawn) [9b], the “% of Inhibition … (qPCR)” value in the data set with DENV-2 [1] was determined as 99.0%. The IC50 in the data set with DENV-2 [1] (Vero cells) was 1.64 µM; in data set [2] (600 nM NS3FL, 1 mM ATP), greater than 100 µM. Moreover, in the data set with Vero cells, the “Viability of uninfected host cell cultures” value is “did not reduce the viability”. In addition, 100 µM produced 99.8% inhibition in the data set on DENV-2 [3] (Dengue virus, DENV2, Vero). The “Effect against the NS3 protease activity” value in data set [4] is “did not observe any effect”.
`Cc1ccc(C2CC(c3ccc([N+](=O)[O-])cc3)C3=C(O2)c2ccccc2C(=O)C3=O)cc1` (stereo not drawn) [8b]: the “NS3 ATPase inhibition, statistical difference from control (unpaired t-test, p < 0.05)” value in data set [2] (50 µM compound) was “statistically different”.
As for `O=C1C2=C(C(=O)c3ccccc31)C(c1ccc([N+](=O)[O-])cc1)C1=C(O2)C(=O)c2ccccc2C1=O` [10b], in the data set with DENV-2 [1], the “% of Inhibition … (qPCR)” value was determined as 0%. Further, the “Inhibition of DENV-2 replication (in words)” value in the data set on DENV-2 [1] (Vero cells) is listed as “did not inhibit DENV-2 replication”. Besides, the “NS3 ATPase inhibition, statistical difference from control (unpaired t-test, p < 0.05)” value in data set [2] (50 µM compound) is reported as “statistically different”.
Consider `Cc1ccc(C2CC(c3ccccc3)C3=C(O2)c2ccccc2C(=O)C3=O)cc1` (stereo not drawn) [8d], for which the “% of Inhibition … (qPCR)” value in the data set with DENV-2 [1] came to 0%. Besides, the “Inhibition of DENV-2 replication (in words)” value with DENV-2 [1] (Vero cells) is recorded as “did not inhibit DENV-2 replication”.
As for `Cc1ccc(C2CC(c3ccc([N+](=O)[O-])cc3)C3=C(O2)C(=O)c2ccccc2C3=O)cc1` (stereo not drawn) [9c], in the data set on DENV-2 [1], the “% of Inhibition … (qPCR)” value is given as 99.6%. The “IC50 of 9c fold lower than that of compound 9b” value in the data set on DENV-2 [1] (DENV-2 replication in Vero cells) is listed as 5.3 fold. In the data set with DENV-2 [1] (Vero cells), the “Concentration to inhibit 50% of DENV replication, fold lower than aglycon analogue of teicoplanin” value is recorded as 20 fold and the IC50 is 0.311 µM. Further, the IC50 in data set [2] (600 nM NS3FL, 1 mM ATP) came to 80 ± 12 µM. Besides, the “NS3 ATPase inhibition, statistical difference from control (unpaired t-test, p < 0.05)” value in data set [2] (50 µM compound) is “statistically different”. In addition, the “Viability of uninfected host cell cultures” value in the data set with Vero cells is on record as “did not reduce the viability”. Further, the “% of Inhibition of DENV-2 Replication (TCID50)” value in the data set with DENV-2 [3] (100 μM) is recorded as 99.99%. Moreover, the “Effect against the NS3 protease activity” value in data set [4] is “did not observe any effect”.
As to `NC(=O)c1ncn([C@@H]2O[C@H](CO)[C@@H](O)[C@H]2O)n1` [Ribavirin, reference compound], in the data set with DENV-2 [1], the “% of Inhibition … (qPCR)” value stood at 78.00%.
